Test results reported in US20090227575A1, “7H-PYRROLO[2,3-H]QUINAZOLINE COMPOUNDS, THEIR USE AS mTOR KINASE AND PI3 KINASE INHIBITORS, AND THEIR [sequence]” (Wyeth, priority 2008, published 2009).

Assays:
Assay type in all cases: biochemical
[1] = target: PI3K-alpha (Homo sapiens, UniProt P42336); assay: PI3K-alpha fluorescence polarization assay; conditions: read-out: PI3 Kinase α IC50
Method: (§1) The reaction buffer was 20 mM HEPES, pH 7.5, 2 mM MgCl2, 0.05% CHAPS; and 0.01% βME (added fresh). The Stop/Detection Buffer was 100 mM HEPES, pH 7.5, 4 mM EDTA, 0.05% CHAPS; ATP 20 mM in water; PIP2 (diC8, Echelon, Salt Lake City Utah cat #P-4508) 1 mM in water (MW=856.5). The GST-GRP was 1.75 mg/mL or 1.4 mg/mL in 10% glycerol. The Red detector (TAMRA) was 2.5 μM. Nunc 384-well black polypropylene fluorescent plates were used for PI3K assays.
(§2) The assay is run by placing 5 μL of diluted enzyme per well, then 5 μL of diluted compound (or 9.5 μL enzyme then 0.5 μL compound in DMSO) is added and mixed. Then, 10 μL substrate is added to start the reaction. The samples are incubated 30-60 minutes, then the reaction is stopped by adding 20 μL stop/detector mix. PI3K is diluted with reaction buffer (e.g., 5 μL or 7.5 μL PI3K into 620 μL reaction buffer), and 5 μL of diluted enzyme is used per well. A 5 μL portion of reaction buffer or of drug diluted in buffer (e.g., 4 μL/100 so final DMSO is 1% in reaction) is added to each. Pipetting up and down mixes the samples. Alternatively, the enzyme can be diluted to 1215 μL. In this case 9.8 μL is added per well and 0.2 μL compound is added in DMSO.
(§3) To prepare 1 mL of substrate solution, 955 μL reaction buffer, 40 μL PIP2, and 2.5 μL ATP are mixed. 10 μL of substrate is added to each well to start the reaction. […] The stop/detector mix is prepared by mixing 4 μL Red detector and 1.6 μL or 2.0 μL GST-GRP with 1 mL stop buffer, which results in 10 nM probe and 70 nM GST-GRP. 20 μL of the stop/detector mix is added to each well to stop the reaction. The plates are read after 30-90 minutes keeping the red probe solutions dark. For the zero time point, stop/detector mix is added to the enzyme just before adding substrate. For an extra control, stop/detector mix is added to buffer (no enzyme) and substrate or to just buffer (no substrate). […] The recommended reaction has 0.06 μL per 20 μL (0.015 μg/20 μL) or 0.01125 μg/15 μL or 0.75 μg/mL.
(§4) Plates are read on machines with filters for TAMRA. The units are mP with no enzyme controls reading app 190-220 mP units. Fully active enzyme reduces fluorescence polarization down to 70-100 mP after 30 minutes. An active compound raises the mP values halfway to control or to 120-150 mP units.

[2] = target: PI3K-gamma (Homo sapiens, UniProt P48736); assay: PI3K-gamma fluorescence polarization assay; conditions: read-out: PI3 Kinase γ IC50
Chain of PI3K-gamma (P48736 whole entry, species assumed): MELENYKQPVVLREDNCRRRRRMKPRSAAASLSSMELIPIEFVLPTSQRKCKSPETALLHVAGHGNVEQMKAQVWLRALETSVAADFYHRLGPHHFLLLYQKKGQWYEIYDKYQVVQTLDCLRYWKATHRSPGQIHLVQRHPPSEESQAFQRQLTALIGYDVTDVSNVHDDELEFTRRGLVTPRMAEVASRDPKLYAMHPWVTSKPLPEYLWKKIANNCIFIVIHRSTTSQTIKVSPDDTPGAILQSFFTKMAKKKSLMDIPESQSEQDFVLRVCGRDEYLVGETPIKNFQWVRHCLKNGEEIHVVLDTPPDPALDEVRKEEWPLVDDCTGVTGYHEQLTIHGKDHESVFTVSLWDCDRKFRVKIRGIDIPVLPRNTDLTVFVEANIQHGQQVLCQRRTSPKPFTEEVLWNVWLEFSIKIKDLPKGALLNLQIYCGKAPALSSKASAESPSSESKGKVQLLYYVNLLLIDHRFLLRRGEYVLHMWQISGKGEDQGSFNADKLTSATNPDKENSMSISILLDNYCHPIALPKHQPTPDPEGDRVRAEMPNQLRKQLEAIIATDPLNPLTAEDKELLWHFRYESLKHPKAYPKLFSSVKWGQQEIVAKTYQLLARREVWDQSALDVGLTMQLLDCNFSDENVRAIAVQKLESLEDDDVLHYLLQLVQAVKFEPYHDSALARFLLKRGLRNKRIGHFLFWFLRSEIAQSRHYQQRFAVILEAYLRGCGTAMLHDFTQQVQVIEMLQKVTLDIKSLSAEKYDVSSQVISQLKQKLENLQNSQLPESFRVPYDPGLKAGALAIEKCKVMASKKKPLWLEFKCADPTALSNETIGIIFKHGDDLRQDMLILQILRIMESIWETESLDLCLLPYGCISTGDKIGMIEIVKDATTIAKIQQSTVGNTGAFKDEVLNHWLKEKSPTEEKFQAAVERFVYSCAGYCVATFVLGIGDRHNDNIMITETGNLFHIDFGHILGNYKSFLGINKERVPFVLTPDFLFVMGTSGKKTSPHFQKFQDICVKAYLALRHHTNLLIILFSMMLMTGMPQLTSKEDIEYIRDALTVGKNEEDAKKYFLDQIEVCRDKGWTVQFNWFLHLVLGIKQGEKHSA
Method: as §1, §2, §3, §4

[3] = target: Human mTOR (Homo sapiens, UniProt P42345); assay: mTOR kinase assay (DELFIA format, purified enzyme); set-up: FLAG; conditions: read-out: TOR Kinase IC50

Chain of PI3K-alpha (P42336 whole entry, species assumed): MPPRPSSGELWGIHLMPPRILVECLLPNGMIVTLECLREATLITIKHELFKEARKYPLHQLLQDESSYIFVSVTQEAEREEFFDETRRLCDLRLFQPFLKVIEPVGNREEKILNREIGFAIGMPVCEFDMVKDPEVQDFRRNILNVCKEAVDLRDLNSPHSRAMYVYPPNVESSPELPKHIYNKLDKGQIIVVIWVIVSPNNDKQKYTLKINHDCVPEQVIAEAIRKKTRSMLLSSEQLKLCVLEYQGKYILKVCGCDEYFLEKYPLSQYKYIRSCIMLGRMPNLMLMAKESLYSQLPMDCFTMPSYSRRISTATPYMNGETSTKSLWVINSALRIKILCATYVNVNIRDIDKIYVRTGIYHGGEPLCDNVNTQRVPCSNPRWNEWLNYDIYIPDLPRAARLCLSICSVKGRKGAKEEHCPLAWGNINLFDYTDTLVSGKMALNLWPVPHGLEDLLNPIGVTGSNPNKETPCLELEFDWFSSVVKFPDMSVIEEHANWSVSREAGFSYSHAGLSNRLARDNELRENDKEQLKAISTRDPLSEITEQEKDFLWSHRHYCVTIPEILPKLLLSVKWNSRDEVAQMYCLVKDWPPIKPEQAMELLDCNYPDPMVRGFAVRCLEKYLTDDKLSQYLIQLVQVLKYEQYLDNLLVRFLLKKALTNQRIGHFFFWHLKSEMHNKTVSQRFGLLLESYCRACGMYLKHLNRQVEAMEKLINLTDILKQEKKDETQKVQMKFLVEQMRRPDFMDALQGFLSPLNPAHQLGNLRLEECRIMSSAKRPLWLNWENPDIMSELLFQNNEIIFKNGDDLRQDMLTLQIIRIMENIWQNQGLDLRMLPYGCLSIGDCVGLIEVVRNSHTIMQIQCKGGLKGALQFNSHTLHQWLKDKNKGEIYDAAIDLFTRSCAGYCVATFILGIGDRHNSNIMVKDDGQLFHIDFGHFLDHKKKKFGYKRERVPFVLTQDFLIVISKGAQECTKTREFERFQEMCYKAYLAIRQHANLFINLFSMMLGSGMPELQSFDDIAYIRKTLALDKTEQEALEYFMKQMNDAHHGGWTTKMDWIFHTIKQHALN
Chain of PI3K-alpha (P27986 whole entry partner, species assumed): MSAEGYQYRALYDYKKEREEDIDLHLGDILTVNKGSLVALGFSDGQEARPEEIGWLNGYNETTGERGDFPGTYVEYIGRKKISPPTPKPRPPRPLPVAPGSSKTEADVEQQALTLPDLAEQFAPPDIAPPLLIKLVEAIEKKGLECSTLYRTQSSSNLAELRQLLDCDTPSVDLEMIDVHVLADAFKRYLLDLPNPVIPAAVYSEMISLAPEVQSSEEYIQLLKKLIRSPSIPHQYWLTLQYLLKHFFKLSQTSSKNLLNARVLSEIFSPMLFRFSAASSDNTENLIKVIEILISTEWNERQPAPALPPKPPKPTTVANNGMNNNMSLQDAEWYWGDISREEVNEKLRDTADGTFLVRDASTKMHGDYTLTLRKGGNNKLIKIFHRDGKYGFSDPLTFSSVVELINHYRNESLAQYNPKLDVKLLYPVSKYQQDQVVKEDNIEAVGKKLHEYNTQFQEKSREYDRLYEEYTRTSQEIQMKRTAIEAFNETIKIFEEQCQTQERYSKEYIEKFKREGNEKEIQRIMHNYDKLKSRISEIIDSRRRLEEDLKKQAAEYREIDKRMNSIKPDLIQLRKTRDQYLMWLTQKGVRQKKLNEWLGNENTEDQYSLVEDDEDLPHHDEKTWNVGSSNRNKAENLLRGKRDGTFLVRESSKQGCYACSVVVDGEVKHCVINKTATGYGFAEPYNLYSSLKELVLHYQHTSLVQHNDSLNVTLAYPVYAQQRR

| IC50 [1] | IC50 [2] | IC50 [3] | Compound |
| --- | --- | --- | --- |
| 0.775 µM | 4.89 µM | 1.35 µM | CC(C)(C)OC(=O)Cn1ccc2c3nc(-c4ccc(N)nc4)nc(N4CCOCC4)c3ccc21 [Example 60, tert-butyl [2-(6-aminopyridin-3-yl)-4-morpholin-4-yl-7H-pyrrolo[2,3-h]quinazolin-7-yl]acetate] |
| 0.062 µM | 0.198 µM | 0.063 µM | CS(=O)(=O)n1ccc2c3nc(-c4cnc(N)nc4)nc(N4CCOCC4)c3ccc21 [Example 73, 5-[7-(methylsulfonyl)-4-morpholin-4-yl-7H-pyrrolo[2,3-h]quinazolin-2-yl]pyrimidin-2-amine] |
| 10.3 µM | > 10 µM | 2.08 µM | c1cc(-c2nc(N3CCOCC3)c3ccc4[nH]ccc4c3n2)c2cn[nH]c2c1 [Example 80, 2-(1H-indazol-4-yl)-4-morpholin-4-yl-7H-pyrrolo[2,3-h]quinazoline] |
| 12 µM | 6.17 µM | 1.25 µM | Cn1ccc2c3nc(-c4ccc(NC(=O)c5ccc(F)cc5)cc4)nc(N4CCOCC4)c3ccc21 [Example 19, 4-fluoro-N-[4-(7-methyl-4-morpholin-4-yl-7H-pyrrolo[2,3-h]quinazolin-2-yl)phenyl]benzamide] |
| 0.071 µM | 0.247 µM | 0.021 µM | Cn1ccc2c3nc(-c4ccc(NC(=O)Nc5ccccc5)cc4)nc(N4CCOCC4)c3ccc21 [Example 10, 1-[4-(7-methyl-4-morpholin-4-yl-7H-pyrrolo[2,3-h]quinazolin-2-yl)phenyl]-3-phenylurea] |
| 0.216 µM | 0.209 µM | 0.42 µM | Oc1cccc(-c2nc(N3CCOCC3)c3ccc4c(ccn4Cc4ccccc4)c3n2)c1 [Example 46, 3-(7-benzyl-4-morpholin-4-yl-7H-pyrrolo[2,3-h]quinazolin-2-yl)phenol] |
| 0.514 µM | 3.58 µM | 0.235 µM | OCc1cccc(-c2nc(N3CCOCC3)c3ccc4[nH]ccc4c3n2)c1 [Example 57] |
| 0.728 µM | 2.83 µM | 2.05 µM | CN(C)CCNC(=O)Nc1ccc(-c2nc(N3CCOCC3)c3ccc4c(ccn4C)c3n2)cc1 [Example 4, 1-[2-(dimethylamino)ethyl]-3-[4-(7-methyl-4-morpholin-4-yl-7H-pyrrolo[2,3-h]quinazolin-2-yl)phenyl]urea] |
| 0.074 µM | 0.313 µM | 0.044 µM | CCN1CCC(S(=O)(=O)n2ccc3c4nc(-c5ccc(NC(=O)Nc6ccncc6)cc5)nc(N5CCOCC5)c4ccc32)CC1 [Example 64, 1-(4-{7-[(1-ethylpiperidin-4-yl)sulfonyl]-4-morpholin-4-yl-7H-pyrrolo[2,3-h]quinazolin-2-yl}phenyl)-3-pyridin-4-ylurea] |
| 0.222 µM | 0.862 µM | 0.015 µM | CN(C)CCn1ccc2c3nc(-c4ccc(NC(=O)Nc5ccncc5)cc4)nc(N4CCOCC4)c3ccc21 [Example 33, 1-(4-{7-[2-(dimethylamino)ethyl]-4-morpholin-4-yl-7H-pyrrolo[2,3-h]quinazolin-2-yl}phenyl)-3-pyridin-4-ylurea] |
| 0.231 µM | 1.58 µM | 0.67 µM | O=S(=O)(C1CCNCC1)n1ccc2c3nc(-c4cccc(O)c4)nc(N4CCOCC4)c3ccc21 [Example 67, 3-[4-morpholin-4-yl-7-(piperidin-4-ylsulfonyl)-7H-pyrrolo[2,3-h]quinazolin-2-yl]phenol] |
| 2.51 µM | 4.52 µM | 2.7 µM | CC(C)CC(O)c1cccc(-c2nc(N3CCOCC3)c3ccc4c(ccn4C)c3n2)c1 (stereo not drawn) [Example 28, 3-methyl-1-[3-(7-methyl-4-morpholin-4-yl-7H-pyrrolo[2,3-h]quinazolin-2-yl)phenyl]butan-1-ol] |
| 7.55 µM | > 10 µM | 3.05 µM | CCC(O)c1cccc(-c2nc(N3CCOCC3)c3ccc4c(ccn4C)c3n2)c1 (stereo not drawn) [Example 25, 1-[3-(7-methyl-4-morpholin-4-yl-7H-pyrrolo[2,3-h]quinazolin-2-yl)phenyl]propan-1-ol] |
| 2.52 µM | 3.31 µM | 2.15 µM | Cn1ccc2c3nc(-c4ccc(NC(=O)NCc5ccccn5)cc4)nc(N4CCOCC4)c3ccc21 [Example 15, 1-[4-(7-methyl-4-morpholin-4-yl-7H-pyrrolo[2,3-h]quinazolin-2-yl)phenyl]-3-(pyridin-2-ylmethyl)urea] |
| > 10 µM | > 10 µM | 7.55 µM | Cn1ccc2c3nc(-c4ccc(O)nc4)nc(N4CCOCC4)c3ccc21 [Example 48, 5-(7-methyl-4-morpholin-4-yl-7H-pyrrolo[2,3-h]quinazolin-2-yl)pyridin-2-ol] |
| 0.322 µM | 3.62 µM | 4.55 µM | CN(C)CCn1ccc2c3nc(-c4cccc(O)c4)nc(N4CCOCC4)c3ccc21 [Example 32, 3-{7-[2-(dimethylamino)ethyl]-4-morpholin-4-yl-7H-pyrrolo[2,3-h]quinazolin-2-yl}phenol] |
| 2.46 µM | 2.83 µM | 1.13 µM | Cn1ccc2c3nc(-c4cccc5[nH]ccc45)nc(N4CCOCC4)c3ccc21 [Example 45, 2-(1H-indol-4-yl)-7-methyl-4-morpholin-4-yl-7H-pyrrolo[2,3-h]quinazoline] |
| 8.4 µM | 6.16 µM | 5.3 µM | Cn1ccc2c3nc(-c4ccc(NS(=O)(=O)c5ccccc5)cc4)nc(N4CCOCC4)c3ccc21 [Example 22, N-[4-(7-methyl-4-morpholin-4-yl-7H-pyrrolo[2,3-h]quinazolin-2-yl)phenyl]benzenesulfonamide] |
| > 10 µM | 9.85 µM | 1.4 µM | Cn1ccc2c3nc(-c4ccc(NC(=O)c5cccnc5)cc4)nc(N4CCOCC4)c3ccc21 [Example 17, N-[4-(7-methyl-4-morpholin-4-yl-7H-pyrrolo[2,3-h]quinazolin-2-yl)phenyl]nicotinamide] |
| 3.31 µM | 2.09 µM | 0.39 µM | CCOC(=O)Nc1ccc(-c2nc(N3CCOCC3)c3ccc4c(ccn4C)c3n2)cc1 [Example 20, ethyl [4-(7-methyl-4-morpholin-4-yl-7H-pyrrolo[2,3-h]quinazolin-2-yl)phenyl]carbamate] |
| 4.03 µM | 2.48 µM | > 20 µM | CN(C)CCn1ccc2c3nc(-c4cccc(OCc5ccccc5)c4)nc(N4CCOCC4)c3ccc21 [Example 31, 2-{2-[3-(benzyloxy)phenyl]-4-morpholin-4-yl-7H-pyrrolo[2,3-h]quinazolin-7-yl}-N,N-dimethylethanamine] |
| 0.212 µM | 1.19 µM | 0.545 µM | CS(=O)(=O)n1ccc2c3nc(-c4cccc(CO)c4)nc(N4CCOCC4)c3ccc21 [Example 74, {3-[7-(methylsulfonyl)-4-morpholin-4-yl-7H-pyrrolo[2,3-h]quinazolin-2-yl]phenyl}methanol] |
| 0.451 µM | 0.933 µM | 0.525 µM | COCOc1cncc(-c2nc(N3CCOCC3)c3ccc4c(ccn4C)c3n2)c1 [Example 77, 2-[5-(methoxymethoxy)pyridin-3-yl]-7-methyl-4-morpholin-4-yl-7H-pyrrolo[2,3-h]quinazoline] |
| 0.431 µM | 3.04 µM | 0.19 µM | Cn1ccc2c3nc(-c4ccc(NC(=O)NCCCn5ccnc5)cc4)nc(N4CCOCC4)c3ccc21 [Example 8, 1-[3-(1H-imidazol-1-yl)propyl]-3-[4-(7-methyl-4-morpholin-4-yl-7H-pyrrolo[2,3-h]quinazolin-2-yl)phenyl]urea] |
| 3.08 µM | > 10 µM | 0.37 µM | CC(=O)Nc1ccc(-c2nc(N3CCOCC3)c3ccc4c(ccn4C)c3n2)cc1 [Example 16, N-[4-(7-methyl-4-morpholin-4-yl-7H-pyrrolo[2,3-h]quinazolin-2-yl)phenyl]acetamide] |

| Compound | IC50 [1] | IC50 [2] | IC50 [3] |
| --- | --- | --- | --- |
| 3-(7-methyl-4-morpholin-4-yl-7H-pyrrolo[2,3-h]quinazolin-2-yl)aniline [Example 41] | > 10 µM | > 10 µM | 1.45 µM |
| 2-(1H-indol-4-yl)-7-methyl-4-morpholin-5-yl-7H-pyrrolo[2,3-h]quinazoline [Example 49] | 6.31 µM | 4.66 µM | 0.34 µM |
